Test results as given in PubChem BioAssay AID256 (DTP/NCI, 2004).
“And” between values parts separate entries of the source, which are not always exact repeats. Equal entries are not always repeated. Inconclusive results and toxic doses are left out. Rule for the calls: active = survival T/C of 150% or more; inactive = T/C below 125% in these data.

System: CD2F1 mice, L1210 leukemia ip, survival T/C
Experiment: NCI In Vivo Anticancer Drug Screen. Data for tumor model L1210 Leukemia (intraperitoneal) in CD2F1 (CDF1) mice
Details: higher = longer survival
How it was run: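 Tumor-bearing mice (transplanted tumor) were split into treated and vehicle control groups, and the measured endpoint of each treated group was divided by that of its vehicle controls.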

[1] = endpoint: mean survival time, dose: 100.0 mg/kg/injection, schedule: Q04DX003 (ip), vehicle: saline with Tween-80
[2] = endpoint: mean survival time, dose: 200.0 mg/kg/injection, schedule: Q04DX003 (ip), vehicle: saline with Tween-80
[3] = endpoint: mean survival time, dose: 50.0 mg/kg/injection, schedule: Q01DX009 (ip), vehicle: saline with Tween-80
[4] = endpoint: mean survival time, dose: 100.0 mg/kg/injection, schedule: Q01DX009 (ip), vehicle: saline with Tween-80
[5] = endpoint: mean survival time, dose: 200.0 mg/kg/injection, schedule: Q01DX009 (ip), vehicle: saline with Tween-80
[6] = endpoint: mean survival time, dose: 50.0 mg/kg/injection, schedule: Q01DX009 (ip), vehicle: saline
[7] = endpoint: mean survival time, dose: 100.0 mg/kg/injection, schedule: Q01DX009 (ip), vehicle: saline
[8] = endpoint: mean survival time, dose: 200.0 mg/kg/injection, schedule: Q01DX009 (ip), vehicle: saline
[9] = endpoint: mean survival time, dose: 400.0 mg/kg/injection, schedule: Q04DX003 (ip), vehicle: saline with Tween-80

Measured: T/C

CC1(c2ccc3ccccc3c2)OC(=O)c2ccccc21 (centres undefined)
inactive: endpoint: median survival time, dose: 12.5 mg/kg/injection, schedule: Q04DX003 (ip), vehicle: saline with Tween-80 111 % of control | endpoint: median survival time, dose: 25.0 mg/kg/injection, schedule: Q04DX003 (ip), vehicle: saline with Tween-80 100 % of control | endpoint: median survival time, dose: 50.0 mg/kg/injection, schedule: Q04DX003 (ip), vehicle: saline with Tween-80 111 % of control | endpoint: median survival time, dose: 100.0 mg/kg/injection, schedule: Q04DX003 (ip), vehicle: saline with Tween-80 88 % of control

COc1cc(NC(N)=O)ccc1Nc1c2ccc(N)cc2nc2cc(N)ccc12
inactive: endpoint: mean survival time, dose: 0.5 mg/kg/injection, schedule: Q01DX009 (ip), vehicle: saline 100 % of control | endpoint: mean survival time, dose: 1.0 mg/kg/injection, schedule: Q01DX009 (ip), vehicle: saline 98 % of control | endpoint: mean survival time, dose: 2.0 mg/kg/injection, schedule: Q01DX009 (ip), vehicle: saline 102 % of control | endpoint: mean survival time, dose: 4.0 mg/kg/injection, schedule: Q01DX009 (ip), vehicle: saline 102 % of control | endpoint: mean survival time, dose: 8.0 mg/kg/injection, schedule: Q01DX009 (ip), vehicle: saline 103 % of control | endpoint: mean survival time, dose: 16.0 mg/kg/injection, schedule: Q01DX009 (ip), vehicle: saline 111 % of control

CN(Cc1ccccc1)c1ccc2nc(N)nc(N)c2c1
inactive: [1] 103 % of control | [2] 110 % of control

NC(CCC(=O)Nc1cccc2ccccc12)C(=O)O (centres undefined)
inactive: [3] 98 % of control | [4] 107 % of control | [5] 104 % of control

c1ccc2c(c1)[nH]c1nc3ccncc3nc12
inactive: [6] 96 % of control | [7] 104 % of control | [8] 95 % of control

Nc1[nH]c(=S)[nH]c(=O)c1N
inactive: endpoint: mean survival time, dose: 6.25 mg/kg/injection, schedule: Q04DX002 (ip), vehicle: saline with Tween-80 102 % of control | endpoint: mean survival time, dose: 12.5 mg/kg/injection, schedule: Q04DX002 (ip), vehicle: saline with Tween-80 102 % of control | endpoint: mean survival time, dose: 25.0 mg/kg/injection, schedule: Q04DX002 (ip), vehicle: saline with Tween-80 102 % of control

COC(=O)CCC(C)C1CCC2C3C(O)CC4CC(O)CCC4(C)C3CC(O)C12C (centres undefined)
inactive: endpoint: mean survival time, dose: 25.0 mg/kg/injection, schedule: Q01DX009 (ip), vehicle: saline with Tween-80 96 % of control | [3] 93 % of control | [4] 95 % of control and 100 % of control

C=CCNC(N)=O
inactive: endpoint: mean survival time, dose: 100.0 mg/kg/injection, schedule: Q04DX003 (ip), vehicle: saline 94 % of control | endpoint: mean survival time, dose: 200.0 mg/kg/injection, schedule: Q04DX003 (ip), vehicle: saline 93 % of control

O=C1C(O)=C(c2ccccc2C(=O)O)C(=O)C(O)=C1c1ccccc1C(=O)O
inactive: [4] 92 % of control

Cc1cc(N(CC(C)Cl)CC(C)Cl)ccc1N=Nc1ccccc1C(=O)O (centres undefined)
inactive: endpoint: mean survival time, dose: 1.56 mg/kg/injection, schedule: Q01DX009 (ip), vehicle: Klucel (hydroxypropylcellulose) (HPC) 104 % of control | endpoint: mean survival time, dose: 3.12 mg/kg/injection, schedule: Q01DX009 (ip), vehicle: Klucel (hydroxypropylcellulose) (HPC) 104 % of control | endpoint: mean survival time, dose: 6.25 mg/kg/injection, schedule: Q01DX009 (ip), vehicle: Klucel (hydroxypropylcellulose) (HPC) 117 % of control and 109 % of control | endpoint: mean survival time, dose: 12.5 mg/kg/injection, schedule: Q01DX009 (ip), vehicle: Klucel (hydroxypropylcellulose) (HPC) 111 % of control

CCN1CCC(C(C)(C)C)CC1
inactive: endpoint: mean survival time, dose: 100.0 mg/kg/injection, schedule: Q01DX001 (ip), vehicle: acetone 102 % of control

O=[N+]([O-])c1c[nH]n2c([N+](=O)[O-])cnc12
inactive: endpoint: mean survival time, dose: 12.5 mg/kg/injection, schedule: Q01DX009 (ip), vehicle: water 96 % of control | endpoint: mean survival time, dose: 25.0 mg/kg/injection, schedule: Q01DX009 (ip), vehicle: water 97 % of control

CN(C)S(=O)(=O)c1ccccc1C(O)(c1ccccc1)c1ccccc1 (tested in a mixture with another compound)
inactive: [1] 92 % of control | [2] 87 % of control | [9] 98 % of control

OC1CC2C=CC1CC2 (centres undefined)
inactive: [7] 97 % of control | [8] 94 % of control | endpoint: mean survival time, dose: 400.0 mg/kg/injection, schedule: Q01DX009 (ip), vehicle: saline 100 % of control

CSC1SCC2C(=O)N(C)C(C(C)C)C(=O)OCC(NC(=O)c3cnc4ccccc4n3)C(=O)NC(C)C(=O)N(C)C1C(=O)N(C)C(C(C)C)C(=O)OCC(NC(=O)c1cnc3ccccc3n1)C(=O)NC(C)C(=O)N2C (centres undefined)
inactive: endpoint: mean survival time, dose: 4.0 micrograms/kg/injection, schedule: Q01DX009 (ip), vehicle: saline 105 % of control | endpoint: mean survival time, dose: 8.0 micrograms/kg/injection, schedule: Q01DX009 (ip), vehicle: saline 107 % of control | endpoint: mean survival time, dose: 15.0 micrograms/kg/injection, schedule: Q01DX009 (ip), vehicle: saline 102 % of control | endpoint: mean survival time, dose: 16.0 micrograms/kg/injection, schedule: Q01DX009 (ip), vehicle: saline 111 % of control | endpoint: mean survival time, dose: 30.0 micrograms/kg/injection, schedule: Q01DX009 (ip), vehicle: saline 118 % of control | endpoint: mean survival time, dose: 32.0 micrograms/kg/injection, schedule: Q01DX009 (ip), vehicle: saline 92 % of control | endpoint: mean survival time, dose: 60.0 micrograms/kg/injection, schedule: Q01DX009 (ip), vehicle: saline 108 % of control | endpoint: mean survival time, dose: 120.0 micrograms/kg/injection, schedule: Q01DX009 (ip), vehicle: saline 86 % of control | endpoint: mean survival time, dose: 192.0 micrograms/kg/injection, schedule: Q01DX009 (ip), vehicle: saline 114 % of control | endpoint: median survival time, dose: 67.0 micrograms/kg/injection, schedule: Q01DX005 (ip), vehicle: saline 122 % of control | endpoint: median survival time, dose: 150.0 micrograms/kg/injection, schedule: Q01DX005 (ip), vehicle: saline 120 % of control and 123 % of control | endpoint: median survival time, dose: 200.0 micrograms/kg/injection, schedule: Q01DX005 (ip), vehicle: saline 106 % of control

CC(C)OC(=O)Nc1ccc(F)c(C(F)(F)F)c1
inactive: [1] 96 % of control | [2] 96 % of control | [9] 94 % of control

CC1=NN(c2ccccc2)C(=O)C1
inactive: [4] 98 % of control | [1] 94 % of control | [5] 102 % of control | [2] 92 % of control | endpoint: mean survival time, dose: 400.0 mg/kg/injection, schedule: Q01DX009 (ip), vehicle: saline with Tween-80 96 % of control | [9] 86 % of control

Cc1ccc(Nc2n[nH]c(=S)s2)cc1C
inactive: [1] 93 % of control | [2] 94 % of control | [9] 109 % of control

CNC(=O)NCc1ccc(C(=O)NC(C)C)cc1
inactive: endpoint: mean survival time, dose: 50.0 mg/kg/injection, schedule: Q01DX009 (ip), vehicle: other 100 % of control | endpoint: mean survival time, dose: 100.0 mg/kg/injection, schedule: Q01DX009 (ip), vehicle: other 101 % of control | endpoint: mean survival time, dose: 200.0 mg/kg/injection, schedule: Q01DX009 (ip), vehicle: other 100 % of control | endpoint: mean survival time, dose: 400.0 mg/kg/injection, schedule: Q01DX009 (ip), vehicle: other 89 % of control

CCc1cc(CSc2ccc(Cl)cc2)ccc1N
inactive: [1] 102 % of control | [2] 100 % of control | [9] 98 % of control

O=c1oc(-c2ccccc2)nc2c(Cl)ccc(Cl)c12
inactive: endpoint: mean survival time, dose: 90.0 mg/kg/injection, schedule: Q04DX003 (ip), vehicle: other 107 % of control | endpoint: mean survival time, dose: 135.0 mg/kg/injection, schedule: Q04DX003 (ip), vehicle: other 97 % of control | endpoint: mean survival time, dose: 200.0 mg/kg/injection, schedule: Q04DX003 (ip), vehicle: other 119 % of control | endpoint: mean survival time, dose: 300.0 mg/kg/injection, schedule: Q04DX003 (ip), vehicle: other 102 % of control

OCCN1CCN(CC/C=C2/c3ccccc3Sc3ccc(Cl)cc32)CC1
inactive: endpoint: mean survival time, dose: 1.56 mg/kg/injection, schedule: Q01DX009 (ip), vehicle: saline 92 % of control and 97 % of control | endpoint: mean survival time, dose: 3.12 mg/kg/injection, schedule: Q01DX009 (ip), vehicle: saline 98 % of control | endpoint: mean survival time, dose: 6.25 mg/kg/injection, schedule: Q01DX009 (ip), vehicle: saline 104 % of control and 110 % of control | endpoint: mean survival time, dose: 12.5 mg/kg/injection, schedule: Q01DX009 (ip), vehicle: saline 116 % of control and 110 % of control | endpoint: mean survival time, dose: 25.0 mg/kg/injection, schedule: Q01DX009 (ip), vehicle: saline 122 % of control and 124 % of control | [6] 106 % of control

Nc1nc2c(ncn2-c2cccc(NC(=O)CBr)c2)c(=O)[nH]1
inactive: endpoint: mean survival time, dose: 37.5 mg/kg/injection, schedule: Q01DX001 (ip), vehicle: saline with Tween-80 95 % of control | endpoint: mean survival time, dose: 75.0 mg/kg/injection, schedule: Q01DX001 (ip), vehicle: saline with Tween-80 100 % of control | endpoint: mean survival time, dose: 150.0 mg/kg/injection, schedule: Q01DX001 (ip), vehicle: saline with Tween-80 92 % of control
